One experiment concerns the target human IRAK4 (Homo sapiens (Human), UniProt Q9NWZ3). The experiment in a line: IRAK4 kinase assay (IRAK4 TR-FRET assay). The note with it: 1 mM ATP. The class given is biochemical. A digest of the protocol:
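GST-human IRAK4 (insect-cell expressed, ~0.2 nM) was prebound 15 min with compound, then reacted 45 min at 22° C with 1 mM ATP and 0.5 μM biotinylated peptide in HEPES pH 7.5. Phosphopeptide detected by TR-FRET (665/620 nm). IC50 from 4-parameter fit over 11 concentrations, 20 μM-0.073 nM.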
In general terms: TR-FRET usually uses a lanthanide donor and a delayed reading to cut background.

The next experiment concerns TMD-8 cells. The experiment in a line: Cell proliferation measurement in TMD-8 cells. The class given is cell-based, human. The conditions noted are these: Cell Titer Glo, read-out: IC50 with respect to proliferation inhibition in TMD-8 cells. The protocol: Cell Proliferation Measurement The antiproliferative activity of the inventive compounds of the general formula (I) was examined in vitro in human ABC-DLBCL cells (see Table 3). For this purpose 4000 TMD-8 cells (both from ATCC) at 30 μl/cavity in growth medium (RPMI (Biochrom: FG 1215), 20% FCS (Biochrom: S 0615)) were transferred into a 384-cavity plate (Perkin Elmer, white) and incubated at 37° C. overnight. After 24 h, cells on one plate (0 h plate) were treated with 30 μl/cavity of CTG solution (Promega Cell Titer Glo (catalogue # […] and […])) and incubated at room temperature for 10 min, and luminescence was measured by means of a VICTOR V (Perkin Elmer), in order to determine cell viability on commencement of treatment. The cells on the test plate were treated with the inventive compounds of the general formula (I) and incubated at 37° C. for 72 h. The compounds were added to the cells in a 7-stage, 3-fold dilution series using an HP D300 digital dispenser. As control, the cells were treated with vehicle (DMSO). After 72 h, the cells were treated with 30 μl/cavity of CTG solution (Promega Cell Titer Glo (catalogue # […] and […])) and incubated at room temperature for 10 min, and luminescence was measured by means of a VICTOR V (Perkin Elmer), in order to determine cell viability at the end of treatment. The percentage effect on cell growth and the IC50 derived therefrom were determined for each test substance using the values from the 0 h plate (=maximum inhibition) and the DMSO control (=minimum inhibition). The IC50 values were calculated using a 4-parameter fit.
A general note: ATP-based viability assays read luminescence as a measure of living cells.

Read-outs that look alike come from different tables or passages of the source.

From patent US10435396B2, “2-substituted indazoles, methods for producing same, pharmaceutical preparations that contain same, and use of same to produce drugs” (Bayer Pharma Aktiengesellschaft, priority 2016, dated 2019) come the findings set out here.

human IRAK4, sequence (Q9NWZ3 whole entry): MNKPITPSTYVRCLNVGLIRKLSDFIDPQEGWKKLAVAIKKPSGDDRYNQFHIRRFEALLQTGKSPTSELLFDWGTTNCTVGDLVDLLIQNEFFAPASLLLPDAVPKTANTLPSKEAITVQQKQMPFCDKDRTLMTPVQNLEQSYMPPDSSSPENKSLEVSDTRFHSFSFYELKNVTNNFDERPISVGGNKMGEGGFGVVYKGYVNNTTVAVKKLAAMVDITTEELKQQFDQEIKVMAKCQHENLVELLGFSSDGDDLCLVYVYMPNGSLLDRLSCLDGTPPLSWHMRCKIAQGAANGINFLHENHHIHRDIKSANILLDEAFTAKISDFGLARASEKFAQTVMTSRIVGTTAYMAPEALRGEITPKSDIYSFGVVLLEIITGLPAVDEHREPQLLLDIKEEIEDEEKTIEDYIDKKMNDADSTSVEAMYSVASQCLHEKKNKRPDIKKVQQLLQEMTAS

For `COc1cc2nn(C3CC[S+]([O-])CC3)cc2cc1NC(=O)c1cccc(C(F)(F)F)n1` (racemic) [Example 12, rac-N-[6-Methoxy-2-(1-oxidotetrahydro-2H-thiopyran-4-yl)-2H-indazol-5-yl]-6-(trifluoromethyl)pyridine-2-carboxamide], the IC50 was determined as 2 nM at human IRAK4 and 11500 nM with TMD-8 cells (Homo sapiens, TMD8, 72 h).
In the case of `COc1cc2nn([C@@H]3C[C@@H]4C[C@H]3CN4C)cc2cc1NC(=O)c1cccc(C(F)(F)F)n1` (relative stereo) [Example 18, rel-N-{6-Methoxy-2-[(1S,4S,5R)-2-methyl-2-azabicyclo[2.2.1]hept-5-yl]-2H-indazol-5-yl}-6-(trifluoromethyl)pyridine-2-carboxamide], the IC50 amounted to 2 nM at human IRAK4 and 3450 nM in the experiment with TMD-8 cells (Homo sapiens, TMD8, 72 h).
Turning to `COc1cc2nn(C3CCS(=N)(=O)CC3)cc2cc1NC(=O)c1cccc(C(F)(F)F)n1` (single isomer, unassigned) [Example 20, N-[2-(1-Imino-1-oxidohexahydro-1λ^4-thiopyran-4-yl)-6-methoxy-2H-indazol-5-yl]-6-(trifluoromethyl)pyridine-2-carboxamide], the results for the IC50 at human IRAK4 and in the experiment with TMD-8 cells (72 h) were 4 nM and 16100 nM, respectively.
`COc1cc2nn(C3CCS(=N)(=O)CC3)cc2cc1NC(=O)c1cccc(C(F)(F)F)n1` (single isomer, unassigned) [Example 21, N-[2-(1-Imino-1-oxidohexahydro-1λ^4-thiopyran-4-yl)-6-methoxy-2H-indazol-5-yl]-6-(trifluoromethyl)pyridine-2-carboxamide]: the IC50 against human IRAK4 worked out at 3 nM; in the experiment with TMD-8 cells (Homo sapiens, TMD8, 72 h), 14800 nM.
As to `COc1cc2nn(C3CCOCC3)cc2cc1NC(=O)c1cccc(C(F)(F)F)n1` [Example 1, N-[6-Methoxy-2-(tetrahydro-2H-pyran-4-yl)-2H-indazol-5-yl]-6-(trifluoromethyl)pyridine-2-carboxamide], the IC50 at human IRAK4 came to 3 nM; in the experiment with TMD-8 cells (Homo sapiens, TMD8, 72 h), 28200 nM.
`COc1cc2nn(C3CCNCC3)cc2cc1NC(=O)c1cccc(C(F)(F)F)n1` [Example 2, N-[6-Methoxy-2-(piperidin-4-yl)-2H-indazol-5-yl]-6-(trifluoromethyl)pyridine-2-carboxamide]: the IC50 was 1 nM at human IRAK4 and 8610 nM in the experiment on TMD-8 cells (Homo sapiens, TMD8, 72 h).
Regarding `COc1cc2nn(C3CCN(C)CC3)cc2cc1NC(=O)c1cccc(C(F)(F)F)n1` [Example 4, N-[6-Methoxy-2-(1-methylpiperidin-4-yl)-2H-indazol-5-yl]-6-(trifluoromethyl)pyridine-2-carboxamide], the IC50 against human IRAK4 came to 1 nM; in the experiment with TMD-8 cells (Homo sapiens, TMD8, 72 h), 4080 nM.
For `COc1cc2nn(C3CCN(C(=O)CO)CC3)cc2cc1NC(=O)c1cccc(C(F)(F)F)n1` [Example 5, N-[2-(1-Glycoloylpiperidin-4-yl)-6-methoxy-2H-indazol-5-yl]-6-(trifluoromethyl)pyridine-2-carboxamide], the IC50 is 2 nM on human IRAK4 and 15500 nM with TMD-8 cells (Homo sapiens, TMD8, 72 h).
As to `COc1cc2nn(C3CCN(C4COC4)CC3)cc2cc1NC(=O)c1cccc(C(F)(F)F)n1` [Example 10, N-{6-Methoxy-2-[1-(oxetan-3-yl)piperidin-4-yl]-2H-indazol-5-yl}-6-(trifluoromethyl)pyridine-2-carboxamide], the IC50 against human IRAK4 is 3 nM; in the experiment with TMD-8 cells (Homo sapiens, TMD8, 72 h) it was 23300 nM.
The corresponding values for `COc1cc2nn(C3CCN(CCO)CC3)cc2cc1NC(=O)c1cccc(C(F)(F)F)n1` [Example 13, N-{2-[1-(2-Hydroxyethyl)piperidin-4-yl]-6-methoxy-2H-indazol-5-yl}-6-(trifluoromethyl)pyridine-2-carboxamide] are 1 nM and 5850 nM.
For `COc1cc2nn(C3CCOCC3)cc2cc1NC(=O)c1cccc(C(F)F)n1` [Example 23, 6-(Difluoromethyl)-N-[6-methoxy-2-(tetrahydro-2H-pyran-4-yl)-2H-indazol-5-yl]pyridine-2-carboxamide] the same measures were 1 nM and 8520 nM.
For `COc1cc2nn(C3CCOCC3)cc2cc1NC(=O)c1cccc(N2CCOCC2)n1` [Example 24, N-[6-Methoxy-2-(tetrahydro-2H-pyran-4-yl)-2H-indazol-5-yl]-6-(morpholin-4-yl)pyridine-2-carboxamide] the same measures were 2 nM and 28100 nM.
Turning to `COc1cc2nn(C3CCOCC3)cc2cc1NC(=O)c1cccc(C(C)(C)O)n1` [Example 28, 6-(2-Hydroxypropan-2-yl)-N-[6-methoxy-2-(tetrahydro-2H-pyran-4-yl)-2H-indazol-5-yl]pyridine-2-carboxamide], the IC50 was found to be 3 nM at human IRAK4 and 3510 nM with TMD-8 cells (Homo sapiens, TMD8, 72 h).
For the compound `CC(C)(O)c1cc2nn(C3CCS(=O)(=O)CC3)cc2cc1NC(=O)c1cccc(C(F)(F)F)n1` [Example 44, N-[2-(1,1-Dioxidotetrahydro-2H-thiopyran-4-yl)-6-(2-hydroxypropan-2-yl)-2H-indazol-5-yl]-6-(trifluoromethyl)pyridine-2-carboxamide], the IC50 on human IRAK4 stood at 5 nM; in the experiment on TMD-8 cells (Homo sapiens, TMD8, 72 h), 18800 nM.
For `CC(C)(O)c1cc2nn(C3CCNCC3)cc2cc1NC(=O)c1cccc(C(F)(F)F)n1` [Example 46, N-[6-(2-Hydroxypropan-2-yl)-2-(piperidin-4-yl)-2H-indazol-5-yl]-6-(trifluoromethyl)pyridine-2-carboxamide] the same measures were 3 nM and 14100 nM.
